Test results as given in patent publication US20080200454A1, “CARBON-LINKED TETRAHYDRO-PYRAZOLO-PYRIDINE MODULATORS OF CATHEPSIN S” (priority 2007, published 2008).

target: Recombinant human cathepsin S (CatS) (Homo sapiens, UniProt P25774); assay: Recombinant human cathepsin S (CatS) inhibition assay, fluorogenic substrate Z-Valine-Valine-Arginine-AMC; conditions: not given;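 note: Baculovirus-expressed CatS in pH 5.0 sodium acetate buffer with DTT and NaCl, fluorescence read each minute over 20 min, inhibition derived from rate slope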
Sequence (P25774 115-331): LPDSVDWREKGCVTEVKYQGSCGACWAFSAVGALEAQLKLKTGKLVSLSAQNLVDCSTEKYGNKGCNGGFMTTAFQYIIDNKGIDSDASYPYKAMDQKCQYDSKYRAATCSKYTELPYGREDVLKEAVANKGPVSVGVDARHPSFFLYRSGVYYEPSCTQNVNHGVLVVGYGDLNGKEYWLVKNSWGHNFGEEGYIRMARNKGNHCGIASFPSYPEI

IC50 [nM]	SMILES
30	NC(=O)C(=O)N1CCc2c(c(-c3ccc(Cl)c(C#Cc4ccc(Cl)c(C(=O)N[C@@H](CO)c5ccccc5)c4)c3)nn2CCCN2CCSCC2)C1 [Example 564, 5-[(5-{5-[Amino(oxo)acetyl]-1-(3-thiomorpholin-4-ylpropyl)-4,5,6,7-tetrahydro-1H-pyrazolo[4,3-c]pyridin-3-yl}-2-chlorophenyl)ethynyl]-2-chloro-N-[(1R)-2-hydroxy-1-phenylethyl]benzamide]
40	NC(=O)N1CCc2c(c(-c3ccc(Cl)c(C#Cc4ccc(Cl)c(C(=O)NC[C@@H]5CCNC5)c4)c3)nn2CCCN2CCSCC2)C1 [Example 582, 3-{4-Chloro-3-[(4-chloro-3-{[(3R)-pyrrolidin-3-ylmethyl]carbamoyl}phenyl)ethynyl]phenyl}-1-(3-thiomorpholin-4-ylpropyl)-1,4,6,7-tetrahydro-5H-pyrazolo[4,3-c]pyridine-5-carboxamide]
10	CC(C)(C)OC(=O)N1CCC(C2CCN(C[C@H](O)Cn3nc(-c4ccc(Cl)c(C#Cc5ccc(Cl)cc5)c4)c4c3CCN(S(C)(=O)=O)C4)CC2)CC1 [Example 230, 1,1-Dimethylethyl 1′-{(2S)-3-[3-{4-chloro-3-[(4-chlorophenyl)ethynyl]phenyl}-5-(methylsulfonyl)-4,5,6,7-tetrahydro-1H-pyrazolo[4,3-c]pyridin-1-yl]-2-hydroxypropyl}-4,4′-bipiperidine-1-carboxylate]
10	CS(=O)(=O)N1CCc2c(c(-c3ccc(Cl)c(C#Cc4ccc(CNCc5ccc(Cl)cc5)cc4)c3)nn2CCCN2CCC(c3ccccn3)CC2)C1 [Example 177, 1-{4-[(2-Chloro-5-{5-(methylsulfonyl)-1-[3-(4-pyridin-2-ylpiperidin-1-yl)propyl]-4,5,6,7-tetrahydro-1H-pyrazolo[4,3-c]pyridin-3-yl}phenyl)ethynyl]phenyl}-N-[(4-chlorophenyl)methyl]methanamine]
20	NC(=O)N1CCc2c(c(-c3ccc(Cl)c(C#Cc4ccc(Cl)c(C(=O)NCCCO)c4)c3)nn2CCCN2CCSCC2)C1 [Example 555, 3-[4-Chloro-3-({4-chloro-3-[(3-hydroxypropyl)carbamoyl]phenyl}ethynyl)phenyl]-1-(3-thiomorpholin-4-ylpropyl)-1,4,6,7-tetrahydro-5H-pyrazolo[4,3-c]pyridine-5-carboxamide]
350	CC(C)(C)OC(=O)N1CCc2cc(C#Cc3cc(-c4nn(CCCN5CCOCC5)c5c4CN(S(C)(=O)=O)CC5)ccc3Cl)ccc2C1=O [Example 525, 1,1-Dimethylethyl 6-({2-chloro-5-[5-(methylsulfonyl)-1-(3-morpholin-4-ylpropyl)-4,5,6,7-tetrahydro-1H-pyrazolo[4,3-c]pyridin-3-yl]phenyl}ethynyl)-1-oxo-3,4-dihydroisoquinoline-2(1H)-carboxylate]
30	C[C@H]1COCCN1CCCn1nc(-c2ccc(Cl)c(C#Cc3ccc(Cl)c(C(=O)NC[C@@H]4CCCN4)c3)c2)c2c1CCN(C(=O)C(N)=O)C2 [Example 556, 5-{[5-(5-[Amino(oxo)acetyl]-1-{3-[(3S)-3-methylmorpholin-4-yl]propyl}-4,5,6,7-tetrahydro-1H-pyrazolo[4,3-c]pyridin-3-yl)-2-chlorophenyl]ethynyl}-2-chloro-N-[(2S)-pyrrolidin-2-ylmethyl]benzamide]
60	CS(=O)(=O)N1CCc2c(c(-c3ccc(Cl)c(C#Cc4ccc(CNCc5ccc(Cl)cc5)cc4)c3)nn2CCCN2CCCCC2)C1 [Example 181, 1-[4-({2-Chloro-5-[5-(methylsulfonyl)-1-(3-piperidin-1-ylpropyl)-4,5,6,7-tetrahydro-1H-pyrazolo[4,3-c]pyridin-3-yl]phenyl}ethynyl)phenyl]-N-[(4-chlorophenyl)methyl]methanamine]
190	CS(=O)(=O)N1CCc2c(c(-c3ccc(Cl)c(C#Cc4ccc(CNCc5ccc(Cl)cc5)cc4)c3)nn2CCCN2CC3(COC3)C2)C1 [Example 468, 1-{4-[(2-Chloro-5-{5-(methylsulfonyl)-1-[3-(2-oxa-6-azaspiro[3.3]hept-6-yl)propyl]-4,5,6,7-tetrahydro-1H-pyrazolo[4,3-c]pyridin-3-yl}phenyl)ethynyl]phenyl}-N-[(4-chlorophenyl)methyl]methanamine]
80	NC(=O)C(=O)N1CCc2c(c(-c3ccc(Cl)c(C#Cc4ccc(CNCc5ccc(Cl)cc5)cc4)c3)nn2CCCN2C[C@@H]3C[C@H]2CO3)C1 [Example 435, 2-[3-(4-Chloro-3-{[4-({[(4-chlorophenyl)methyl]amino}methyl)phenyl]ethynyl}phenyl)-1-{3-[(1S,4S)-2-oxa-5-azabicyclo[2.2.1]hept-5-yl]propyl}-1,4,6,7-tetrahydro-5H-pyrazolo[4,3-c]pyridin-5-yl]-2-oxoacetamide]
1520	CS(=O)(=O)N1CCc2c(c(-c3ccc(Cl)c(CCCCN4CCCCCC4)c3)nn2CCCN2CCC(N3CCCC3=O)CC2)C1 [Example 114, 1-[1-(3-{3-[3-(4-Azepan-1-yl-butyl)-4-chloro-phenyl]-5-methanesulfonyl-4,5,6,7-tetrahydro-pyrazolo[4,3-c]pyridin-1-yl}-propyl)-piperidin-4-yl]-pyrrolidin-2-one]
120	COC(=O)[C@@H](NCc1ccc(C#Cc2cc(-c3nn(CCCN4CCOCC4)c4c3CN(S(C)(=O)=O)CC4)ccc2Cl)cc1)c1ccccc1 [Example 351, Methyl (2S)-({[4-({2-chloro-5-[5-(methylsulfonyl)-1-(3-morpholin-4-ylpropyl)-4,5,6,7-tetrahydro-1H-pyrazolo[4,3-c]pyridin-3-yl]phenyl}ethynyl)phenyl]methyl}amino)(phenyl)ethanoate]
150	CS(=O)(=O)N1CCc2c(c(-c3ccc(Cl)c(C#Cc4ccc(Cl)cc4)c3)nn2CC(O)CN2CCOCC2)C1 (centres unmarked) [Example 124, 1-{3-[4-Chloro-3-(4-chloro-phenylethynyl)-phenyl]-5-methanesulfonyl-4,5,6,7-tetrahydro-pyrazolo[4,3-c]pyridin-1-yl}-3-morpholin-4-yl-propan-2-ol]

same assay, conditions: CatS IC50

SMILES	IC50 [nM]
C[C@H]1COCCN1CCCn1nc(-c2ccc(Cl)c(C#Cc3ccc4c(c3)CN(C3CC3)CC4)c2)c2c1CCN(C(=O)C(N)=O)C2 [Example 283, 2-(3-{4-Chloro-3-[(2-cyclopropyl-1,2,3,4-tetrahydroisoquinolin-7-yl)ethynyl]phenyl}-1-{3-[(3S)-3-methylmorpholin-4-yl]propyl}-1,4,6,7-tetrahydro-5H-pyrazolo[4,3-c]pyridin-5-yl)-2-oxoacetamide]	100
CS(=O)(=O)N1CCc2c(c(-c3ccc(Cl)c(C#Cc4ccc(CNCCc5cccs5)cc4)c3)nn2CCCN2CCOCC2)C1 [Example 423, N-{[4-({2-Chloro-5-[5-(methylsulfonyl)-1-(3-morpholin-4-ylpropyl)-4,5,6,7-tetrahydro-1H-pyrazolo[4,3-c]pyridin-3-yl]phenyl}ethynyl)phenyl]methyl}-2-(2-thienyl)ethanamine]	270
O=C(CO)N1CCc2c(c(-c3ccc(Cl)c(C#Cc4ccc(CNCc5ccc(Cl)cc5)cc4)c3)nn2CCCN2CCSCC2)C1 [Example 413, 2-[3-(4-Chloro-3-{[4-({[(4-chlorophenyl)methyl]amino}methyl)phenyl]ethynyl}phenyl)-1-(3-thiomorpholin-4-ylpropyl)-1,4,6,7-tetrahydro-5H-pyrazolo[4,3-c]pyridin-5-yl]-2-oxoethanol]	100
C=CCN1CCc2cc(C#Cc3cc(-c4nn(CCCN5CCOCC5)c5c4CN(S(C)(=O)=O)CC5)ccc3Cl)ccc2C1 [Example 527, 6-({2-Chloro-5-[5-(methylsulfonyl)-1-(3-morpholin-4-ylpropyl)-4,5,6,7-tetrahydro-1H-pyrazolo[4,3-c]pyridin-3-yl]phenyl}ethynyl)-2-prop-2-en-1-yl-1,2,3,4-tetrahydroisoquinoline]	300
CS(=O)(=O)N1CCc2c(c(-c3ccc(Cl)c(C#Cc4ccc5c(c4)CCN(CC4CC4)C5)c3)nn2CCCN2CCOCC2)C1 [Example 505, 6-({2-Chloro-5-[5-(methylsulfonyl)-1-(3-morpholin-4-ylpropyl)-4,5,6,7-tetrahydro-1H-pyrazolo[4,3-c]pyridin-3-yl]phenyl}ethynyl)-2-(cyclopropylmethyl)-1,2,3,4-tetrahydroisoquinoline]	630
CS(=O)(=O)N1CCc2c(c(-c3ccc(Cl)c(C#Cc4ccc5c(c4)CN(C4CC4)CC5)c3)nn2CCCN2CCN(C3CC3)CC2)C1 [Example 276, 7-[(2-Chloro-5-{1-[3-(4-cyclopropylpiperazin-1-yl)propyl]-5-(methylsulfonyl)-4,5,6,7-tetrahydro-1H-pyrazolo[4,3-c]pyridin-3-yl}phenyl)ethynyl]-2-cyclopropyl-1,2,3,4-tetrahydroisoquinoline]	180
CS(=O)(=O)N1CCc2c(c(-c3ccc(Cl)c(C#Cc4ccc(CNCC5CC5)cc4)c3)nn2CCCN2CCOCC2)C1 [Example 341, 1-[4-({2-Chloro-5-[5-(methylsulfonyl)-1-(3-morpholin-4-ylpropyl)-4,5,6,7-tetrahydro-1H-pyrazolo[4,3-c]pyridin-3-yl]phenyl}ethynyl)phenyl]-N-(cyclopropylmethyl)methanamine]	830
CS(=O)(=O)N1CCc2c(c(-c3ccc(Cl)c(C#Cc4ccc(CNCc5cccs5)cc4)c3)nn2CCCN2CCOCC2)C1 [Example 421, 1-[4-({2-Chloro-5-[5-(methylsulfonyl)-1-(3-morpholin-4-ylpropyl)-4,5,6,7-tetrahydro-1H-pyrazolo[4,3-c]pyridin-3-yl]phenyl}ethynyl)phenyl]-N-(2-thienylmethyl)methanamine]	190
CS(=O)(=O)N1CCc2c(c(-c3ccc(Cl)c(C#Cc4ccc(Cl)c(CNC5CC5)c4)c3)nn2CCCN2CCCCC2)C1 [Example 603, N-[2-Chloro-5-({2-chloro-5-[5-(methylsulfonyl)-1-(3-piperidin-1-ylpropyl)-4,5,6,7-tetrahydro-1H-pyrazolo[4,3-c]pyridin-3-yl]phenyl}ethynyl)benzyl]cyclopropanamine]	50

same assay, conditions: CatS IC50, Table 2; average of results obtained

SMILES	IC50 [nM]
O=C(CF)N1CCc2c(c(-c3ccc(Cl)c(C#Cc4ccc(Cl)cc4)c3)nn2CCCN2CCOCC2)C1 [Example 140, 1-[3-[4-Chloro-3-(4-chloro-phenylethynyl)-phenyl]-1-(3-morpholin-4-yl-propyl)-1,4,6,7-tetrahydro-pyrazolo[4,3-c]pyridin-5-yl]-2-fluoro-ethanone]	250
